The record followed here is patent US6376491B1, “Bicyclic compounds” (Basilea Pharmaceutica AG, priority 1998, dated 2002).

≈ marks a conversion by molar mass, not a printed value.

In series [1] the test system is Cryptococcus neoformans (Cr. neoformans) cells (strain MTU13001). As to the kind of experiment: In vitro antifungal activity, broth micro-dilution, turbidity at 600 nm. Particulars: YNBPB medium, 35° C., 24 hours, OD600; for IC50: Cryptococcus neoformans, read-out: Inhibition against in vitro cell growth, Cr. neoformans (MTU13001) IC50. Format: cell-based. Here is the method: In vitro antifungal activity of the bicyclic compounds was determined using the Cryptococcus neoformans (Cr. neoformans) cells (strain MTU13001) according to the broth micro-dilution procedure (National Committee for Clinical Laboratory Standard (1992). Document M27-P). 10^4 cells in […] of YNBPB medium (YNB (Difco), 1% (w/v) dextrose (Wako), 0.25% K2HPO4 (Wako)) containing various concentrations of compounds were dispensed in 96-well plates and incubated at 35° C. for 24 hours. The turbidity of the cell suspension was measured using a Microplate leader (WL320, Bio-Tek Instrument) at 600 nm. Antifungal activity of each compound was indicated as 50% inhibition concentration (IC50) values that was determined by calculation the minimum concentration of the compound required for the 50% reduction of the turbidity (OD600) of cells compared to untreated control cells.
(In general: In broth dilution the organism is exposed to a series of concentrations in liquid medium.)

Series [2] can be described thus: Acute toxicity (LD50) by intravenous administration in mice. Conditions: mouse, in vivo. The source says: The acute toxicity (LD50) of the representative bicycle compound (Example 42) of the present invention was examined by intravenous administration in mice.

Regarding `CCOC(=O)c1ccc(NC(=O)c2oc3cccc(OCCCNC(C)(C)C)c3c2C)cc1` [Example 64, 4-[[4-(3-tert-Butylamino-propoxy)-3-methyl-benzofuran-2-carbonyl]-amino]-benzoic Acid Ethyl Ester], the IC50 in series [1] was 2.1 µg/mL (≈ 4.64 µM).

Take `CCOC(=O)c1oc2cccc(OCCCNC3CCN(Cc4ccccc4)CC3)c2c1C` [Example 100, 4-(3-(1-Benzyl-piperidin-4-ylamino)-propoxy)-3-methyl-benzofuran-2-carboxylic Acid Ethyl Ester]: the half-inhibitory concentration (IC50) in series [1] was determined as 2.1 µg/mL (≈ 4.66 µM).

On to `Cc1c(COc2ccc3oc(C(C)(C)O)cc3c2)oc2cccc(OCCCNCc3cccnc3)c12` [Example 44-2, 2-[5-(3-methyl-4-{3-[(pyridin-3-ylmethyl)-amino]-propoxy}-benzofuran-2-ylmethoxy)-benzofuran-2-yl]-propan-2-ol], for which, in series [1], the IC50 is 6.1 µg/mL (≈ 12.2 µM).

Consider `CCOCc1oc2cccc(OCCCNCc3cccnc3)c2c1C` [Example 52, [3-(2-Ethoxymethyl-3-methyl-benzofuran-4-yloxy)-propyl]-pyridin-3-ylmethyl-amine], for which the IC50 in series [1] worked out at 2.6 µg/mL (≈ 7.34 µM).

On to `Cc1c(C(=O)Nc2ccc(N3CCOCC3)cc2)oc2cccc(OCCCNCc3cccnc3)c12` [Example 69, 3-Methyl-4-{3-[(pyridin-3-ylmethyl)-amino]-propoxy}-benzofuran-2-carboxylic Acid (4-morpholin-4-yl-phenyl)-amide], for which the 50% inhibitory concentration (IC50) in series [1] is 57 µg/mL (≈ 114 µM).

As to `Cc1c(CSCCc2ccccc2)oc2cccc(OCCCNC(C)C)c12` [Example 55, Isopropyl-[3-(3-methyl-2-phenethylsulfanylmethyl-benzofuran-4-yloxy)-propyl]-amine], the 50% inhibitory concentration (IC50) in series [1] was determined as 1.8 µg/mL (≈ 4.53 µM).

As for `Cc1c(C2=NC(C(=O)N3CCN(C)CC3)C(CC3CCCCC3)O2)oc2cccc(OCCCNCc3cccnc3)c12` (racemic) [Example 88, dl-[5-Cyclohexylmethyl-2-(3-methyl-4-{3-[(pyridin-3-ylmethyl)-amino]-propoxy}-benzofuran-2-yl)-trans-4,5-dihydro-oxazol-4-yl]-(4-methyl-piperazin-1-yl)-methanone], in series [1], the “Inhibition against in vitro cell growth, Cr. neoformans (MTU13001) IC50” value amounted to 5.3 µg/mL.

Regarding `Cc1c(C(=O)NCCc2ccccc2)oc2cccc(OCCCNC3CCN(Cc4ccccc4)CC3)c12` [Example 112, 4-[3-(1-Benzyl-piperidin-4-ylamino)-propoxy]-3-methyl-benzofuran-2-carboxylic Acid Phenethyl-amide], the half-inhibitory concentration (IC50) in series [1] was 3.1 µg/mL (≈ 5.9 µM).

For the compound `Cc1c(COc2cccnc2)oc2cccc(OCCCNCc3cccnc3)c12` [Example 31, {3-[3-Methyl-2-(pyridin-3-yloxymethyl)-benzofuran-4-yloxy]-propyl}-pyridin-3-ylmethyl-amine], the IC50 in series [1] is 19 µg/mL (≈ 47.1 µM).

Regarding `Cc1c(COc2ccc(C#N)cc2)oc2cccc(OCCCNCc3cccnc3)c12` [Example 32, 4-(3-Methyl-4-{3-[(pyridin-3-ylmethyl)-amino]-propoxy}-benzofuran-2-ylmethoxy)-benzonitrile], the IC50 in series [1] was found to be 69 µg/mL (≈ 161 µM).

As for `CCOCc1cc2cc(OCc3oc4cccc(OCCCNCc5cccnc5)c4c3C)ccc2o1` [Example 42, [3-[2-(2-Ethoxymethyl-benzofuran-5-yloxymethyl)-3-methyl-benzofuran-4-yloxy]-propyl]-pyridin-3-ylmethyl-amine], the IC50 in series [1] came to 2.5 µg/mL (≈ 4.99 µM). The same compound had an LD50 in series [2] greater than 50 mg/kg.

Regarding `CCOC(=O)c1oc2cccc(OCCCNCc3ccc(N(C)C)cc3)c2c1C` [Example 99, 4-(3-(4-Dimethylamino-benzylamino)-propoxy)-3-methyl-benzofuran-2-carboxylic Acid Ethyl Ester], the IC50 in series [1] is 1.9 µg/mL (≈ 4.63 µM).

With `Cc1c(COc2ccc(F)cc2F)oc2cccc(OCCCNCc3cccnc3)c12` [Example 12, {3-[2-(2,4-Difluorophenoxymethyl)-3-methyl-benzofuran-4-yloxy]-propyl}-pyridin-3-ylmethyl-amine], the concentration for half-maximal inhibition (IC50) in series [1] was 4.4 µg/mL (≈ 10 µM).

Consider `Cc1c(COc2ccc(F)c(F)c2F)oc2cccc(OCCCNCc3cccnc3)c12` [Example 21, {3-[2-(2,3,4-Trifluorophenoxymethyl)-3-methyl-benzofuran-4-yloxy]-propyl}-pyridin-3-ylmethyl-amine], for which the IC50 in series [1] worked out at 5.8 µg/mL (≈ 12.7 µM).

One may read the IC50 as the midpoint of a concentration-inhibition curve. In general, LD50 refers to the dose at which mortality reaches 50%.
